Earlier results, collected in patent publication US20230149278A1, “METHOD FOR DYEING KERATIN MATERIAL, COMPRISING THE USE OF AN ORGANOSILICON COMPOUND, A POLYSACCHARIDE, A COLORING COMPOUND AND A POST-TREATMENT AGENT” (Henkel AG & Co. KGaA, priority 2020, published 2023).

Details: for solubility in water: 25° C.

| Compound | solubility in water | solubility in water (in words) (water at 25° C.) |
| --- | --- | --- |
| CCN(Cc1cccc(S(=O)(=O)[O-])c1)c1ccc(C(=C2C=CC(=[N+](CC)Cc3cccc(S(=O)(=O)[O-])c3)C=C2)c2ccccc2S(=O)(=O)[O-])cc1.[Na+].[Na+] [Acid Blue 9] | more than 20 wt. % | – |
| O=S(=O)([O-])c1ccc(N=Nc2c(O)ccc3ccccc23)cc1.[Na+] [Acid Orange 7, sodium salt of 4-[(2-hydroxy-1-naphthyl)azo]benzene sulfonate] | more than 7 g/L | – |
| Nc1cc(S(=O)(=O)[O-])cc2cc(S(=O)(=O)[O-])c(N=Nc3ccccc3)c(O)c12.[Na+].[Na+] [Acid Red 33, disodium salt of 5-amino-4-hydroxy-3-(phenylazo)-naphthalene-2,7-disulphonate] | 2,5 g/L | – |
| O=C([O-])c1c(Cl)c(Cl)c(Cl)c(Cl)c1-c1c2c(Br)cc(=O)c(Br)c-2oc2c(Br)c(O)cc(Br)c12.O=C([O-])c1c(Cl)c(Cl)c(Cl)c(Cl)c1-c1c2c(Br)cc(=O)c(Br)c-2oc2c(Br)c(O)cc(Br)c12.[Na+].[Na+] [Acid Red 92, disodium salt of 3,4,5,6-tetrachloro-2-(1,4,5,8-tetrabromo-6-hydroxy-3-oxoxanthen-9-yl)benzoic acid] | greater than 10 g/L | – |
| O=C(O)C1=NN(c2ccc(S(=O)(=O)O)cc2)C(=O)C1N=Nc1ccc(S(=O)(=O)O)cc1 (stereo not drawn) [Acid Yellow 23, 4,5-dihydro-5-oxo-1-(4-sulfophenyl)-4-((4-sulfophenyl)azo)-1H-pyrazole-3-carboxylic acid] | – | readily soluble |
| mixture of the sodium salts of mono- and disulfonic acids of 2-(2-quinolyl)-1H-indene-1,3(2H)-dione [Acid Yellow 3] | 20 g/L | – |
